Patent publication US7618968B2, “Aryl triazines as LPAAT-β inhibitors and uses thereof” (Cell Therapeutics, Inc., priority 2001, dated 2009)

The molecules below were run against T1, LPAAT-β (Homo sapiens, UniProt O15120) (assay: LPAAT-β cell-free assay (colorimetric primary screen, radiometric/fluorescent TLC secondary assay)). Settings: Sf9 cell membrane overexpressing LPAAT-β.
T1 construct: the full-length human LPAAT-β cDNA was amplified by PCR; poly-histidine tag (from pFastBac HTc vector) (N); made in house; host or cells: Sf9 insect cells (baculovirus); membrane fraction used
T1 sequence (O15120 24-278): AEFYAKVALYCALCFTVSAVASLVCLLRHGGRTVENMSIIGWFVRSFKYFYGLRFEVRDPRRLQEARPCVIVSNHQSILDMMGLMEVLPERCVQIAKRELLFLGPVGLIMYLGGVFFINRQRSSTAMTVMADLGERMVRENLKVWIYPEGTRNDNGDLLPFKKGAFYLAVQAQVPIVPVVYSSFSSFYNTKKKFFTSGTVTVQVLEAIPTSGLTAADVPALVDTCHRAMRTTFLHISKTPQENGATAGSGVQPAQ
Format: biochemical

Question: Which IC50 does the source give for Cc1ccc(Cl)cc1-c1nc(N)nc(Nc2ccc(COC(=O)[C@H](C)N)cc2)n1 [Example 77, 2-Amino-propionic acid 4-[4-amino-6-(5-chloro-2-methyl-phenyl)-[1,3,5]-triazin-2-ylamino]-benzyl ester] here?
Answer: The IC50 was 1300 nM.

Question: With COCc1ccc(Nc2nc(N)nc(-c3cc(Cl)ccc3C)n2)cc1 [Example 78, 6-(5-Chloro-2-methyl-phenyl)-N-(4-methoxy-methyl-phenyl)-[1,3,5]triazine-2,4-diamine] as the molecule, how does the IC50 read?
Answer: The IC50 was 640 nM.

Question: Which IC50 does the source give for COc1ccc(Cl)cc1-c1nc(N)nc(Nc2ccc(C)cc2)n1 [Example 79, 6-(5-Chloro-2-methoxy-phenyl)-N-p-tolyl-[1,3,5]triazine-2,4-diamine] here?
Answer: Its IC50 is 230 nM.

Question: How did the IC50 turn out when Nc1nc(Nc2ccc(Cl)cc2)nc(-c2cc(Cl)ccc2Br)n1 [Example 80, 6-(2-Bromo-5-chloro-phenyl)-N-(4-chloro-phenyl)-[1,3,5]triazine-2,4-diamine] was run?
Answer: Its IC50 is 140 nM.

Question: With Nc1nc(Nc2ccc(Cl)cc2)nc(-c2cc(C(F)(F)F)ccc2Cl)n1 [Example 81, N-(4-Chloro-phenyl)-6-(2-chloro-5-trifluoromethyl-phenyl)-[1,3,5]triazine-2,4-diamine] as the molecule, how does the IC50 read?
Answer: The IC50 was 100 nM.

Question: Which IC50 does the source give for Nc1nc(Nc2ccc3c(c2)OCO3)nc(-c2cc(Cl)ccc2Cl)n1 [Example 82, N-Benzo[1.3]dioxol-5-yl-6-(2,5-dichloro-phenyl)-[1,3,5]triazine-2,4-diamine] here?
Answer: The IC50 was 300 nM.

Question: Cc1ccc(Cl)c(-c2nc(N)nc(Nc3ccc(Cl)cc3)n2)c1 [Example 83, 6-(2-chloro-5-methyl-phenyl)-N-(4-chloro-phenyl)-[1,3,5]triazine-2,4-diamine] was tested. Which IC50 did it give?
Answer: The IC50 was 180 nM.

Question: How did the IC50 turn out when Nc1nc(Nc2ccc(Cl)cc2)nc(-c2cc(Cl)ccc2F)n1 [Example 85, 6-(5-Chloro-2-fluoro-phenyl)-N-(4-chloro-phenyl)-[1,3,5]triazine-2,4-diamine] was run?
Answer: Its IC50 is 70 nM.

Question: Which IC50 does the source give for Cc1ccc(Br)c(-c2nc(N)nc(Nc3ccc(Cl)cc3)n2)c1 [Example 86, 6-(2-bromo-5-methyl-phenyl)-N-(4-chloro-phenyl)-[1,3,5]triazine-2,4-diamine] here?
Answer: Its IC50 is 450 nM.

Question: With Cc1ccc(Cl)cc1-c1nc(N)nc(Nc2ccc(C=O)cc2)n1 [Example 87, 4-[4-Amino-6-(5-chloro-2-methyl-phenyl)-[1,3,5]triazin-2-ylamino]-benzaldehyde] as the molecule, how does the IC50 read?
Answer: The IC50 was 110 nM.

Question: Cc1ccc(Cl)cc1-c1nc(N)nc(Nc2ccc(CCl)cc2)n1 [Example 88, N-(4-Chloromethyl-phenyl)-6-(5-chloro-2-methyl-phenyl)-[1,3,5]triazine-2,4-diamine] was tested. Which IC50 did it give?
Answer: Its IC50 is 180 nM.

Question: How did the IC50 turn out when N#Cc1ccc(Nc2nc(N)nc(-c3cc(Cl)ccc3Cl)n2)cc1 [Example 89, 4-[4-Amino-6-(2,5-dichlorophenyl)-[1,3,5]triazin-2-ylamino]-benzonitrile] was run?
Answer: Its IC50 is 100 nM.

Question: For Nc1nc(Nc2cccc(Cl)c2)nc(-c2cc(Cl)ccc2Cl)n1 [Example 90, N-(3-chlorophenyl)-6-(2,5-dichlorophenyl)-[1,3,5]triazine-2,4-diamine], which IC50 is on record?
Answer: The IC50 was 4800 nM.
